Test results reported in publication PMC7577125 (Antimicrobial Agents and Chemotherapy, 2020).

Legend:
[1] = test system: HBV capsid DNA; experiment: Incoming capsid assay in HepG2-NTCP cells; type: cell-based; details: Hepatitis B virus, 3 h, read-out: Capsid DNA % of Control
[2] = target: T1, CYP2D6 (Homo sapiens, UniProt P10635); experiment: CYP inhibition in human liver microsomes, 2D6; type: in vitro ADME; details: 0.1–100 μM
T1 construct: in human liver microsomes; from tissue; host or cells: human liver microsomes
T1 sequence (P10635 whole entry): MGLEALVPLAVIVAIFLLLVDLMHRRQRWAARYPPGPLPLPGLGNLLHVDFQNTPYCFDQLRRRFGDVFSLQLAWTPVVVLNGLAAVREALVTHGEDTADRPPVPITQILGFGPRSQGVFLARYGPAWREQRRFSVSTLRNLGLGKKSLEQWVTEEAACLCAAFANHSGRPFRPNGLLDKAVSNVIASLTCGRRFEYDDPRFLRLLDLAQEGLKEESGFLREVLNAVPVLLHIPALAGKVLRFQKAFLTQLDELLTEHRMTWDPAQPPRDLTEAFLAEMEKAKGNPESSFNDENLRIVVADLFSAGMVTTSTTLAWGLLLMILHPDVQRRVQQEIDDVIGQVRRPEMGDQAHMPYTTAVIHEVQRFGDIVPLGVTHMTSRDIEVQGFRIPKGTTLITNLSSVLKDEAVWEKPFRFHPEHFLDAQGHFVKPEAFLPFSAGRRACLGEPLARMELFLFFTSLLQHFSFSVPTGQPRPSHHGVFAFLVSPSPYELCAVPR

[3] = in vivo; details: male
Experimental: The same solution formulation was administered per os (p.o.) in the same species to determine oral bioavailability.
Pharmacokinetic studies were performed at Wuxi (Shanghai, China) for studies in male mouse, rat, and cynomolgus monkey and at Sai (Pune, India) for studies in male dog. For all oral studies, the formulation was administered in the fasted state (food removed at least 12 h prior to dosing) to groups of 3 per arm.

[4] = Sprague-Dawley, rat, iv, 1 mg/kg
[5] = Sprague-Dawley, rat, po, 2 mg/kg
[6] = cynomolgus monkey, iv, 0.5 mg/kg

Structure (SMILES): O=C(NCc1cnc(C(F)(F)F)s1)c1ccc2c(c1)NC(=O)c1ccccc1S2(=O)=O [ABI-H0731]
- activity at 0.04 µM ([1]; 0.04 μM): 105%
- activity at 0.12 µM ([1]; 0.12 μM): 107%
- activity at […] ([1]; 0.37 μM): 103%
- activity at 1.11 µM ([1]; 1.11 μM): 91%
- activity at 3.33 µM ([1]; 3.33 μM): 73%
- activity at 10 µM ([1]; 10.0 μM): 10%
- IC50 [2]: 29.6 µM
- Vd ([3]; CD-1 (mouse), Sprague-Dawley (rat), beagle (dog), cynomolgus monkey, iv): 1.56 to 4.06 L/kg
- Tmax ([3]; CD-1 (mouse), Sprague-Dawley (rat), beagle (dog), cynomolgus monkey, po): 0.7 to 3.3 h
- plasma clearance as % of liver blood flow ([3]; CD-1, mouse, iv): 9%
- AUC(0-inf) ([3]; CD-1, mouse, iv, 1 mg/kg): 2070 ng·h/mL
- T1/2 ([3]; CD-1, mouse, iv, 1 mg/kg): 3.55 h
- Vd ([3]; CD-1, mouse, iv, 1 mg/kg): 2.16 L/kg
- clearance ([3]; CD-1, mouse, iv, 1 mg/kg): 8.05 mL/min/kg
- half-life ([3]; CD-1, mouse, iv, 1 mg/kg, T1/2): 3.6 h
- AUC(0-inf) ([3]; CD-1, mouse, po, 5 mg/kg): 8690 ng·h/mL
- Cmax ([3]; CD-1, mouse, po, 5 mg/kg): 1420 ng/mL
- Tmax ([3]; CD-1, mouse, po, 5 mg/kg): 1 h
- bioavailability ([3]; CD-1, mouse, po, 5 mg/kg): 84%
- half-life ([3]; CD-1, mouse, po, 5 mg/kg, T1/2): 3.03 h
- plasma clearance as % of liver blood flow ([3]; Sprague-Dawley, rat, iv): 16%
- AUC(0-inf) [3, 4]: 1670 ng·h/mL
- T1/2 [3, 4]: 4.92 h
- Vd [3, 4]: 3.47 L/kg
- clearance [3, 4]: 10.1 mL/min/kg
- half-life ([3]; Sprague-Dawley, rat, iv, 1 mg/kg, T1/2): 4.9 h
- AUC(0-inf) [3, 5]: 3160 ng·h/mL
- Cmax [3, 5]: 324 ng/mL
- Tmax [3, 5]: 1 h
- bioavailability [3, 5]: 95%
- half-life ([3]; Sprague-Dawley, rat, po, 2 mg/kg, T1/2): 6.13 h
- plasma clearance as % of liver blood flow ([3]; beagle, dog, iv): 47%
- AUC(0-inf) ([3]; beagle, dog, iv, 2 mg/kg): 2890 ng·h/mL
- T1/2 ([3]; beagle, dog, iv, 2 mg/kg): 2.46 h
- Vd ([3]; beagle, dog, iv, 2 mg/kg): 1.56 L/kg
- clearance ([3]; beagle, dog, iv, 2 mg/kg): 14.7 mL/min/kg
- half-life ([3]; beagle, dog, iv, 2 mg/kg, T1/2): 2.5 h
- bioavailability ([3]; beagle, dog, po): 49%
- AUC(0-inf) ([3]; beagle, dog, po, 3 mg/kg): 2150 ng·h/mL
- Cmax ([3]; beagle, dog, po, 3 mg/kg): 861 ng/mL
- Tmax ([3]; beagle, dog, po, 3 mg/kg): 0.667 h
- half-life ([3]; beagle, dog, po, 3 mg/kg, T1/2): 3.34 h
- plasma clearance as % of liver blood flow ([3]; cynomolgus monkey, iv): 11%
- AUC(0-inf) [3, 6]: 1750 ng·h/mL
- Vd [3, 6]: 4.06 L/kg
- clearance [3, 6]: 4.86 mL/min/kg
- half-life [3, 6]: 12.6 h
- AUC(0-inf) ([3]; cynomolgus monkey, po, 2 mg/kg): 4340 ng·h/mL
- Cmax ([3]; cynomolgus monkey, po, 2 mg/kg): 353 ng/mL
- Tmax ([3]; cynomolgus monkey, po, 2 mg/kg): 3.33 h
- bioavailability ([3]; cynomolgus monkey, po, 2 mg/kg): 55%
- half-life ([3]; cynomolgus monkey, po, 2 mg/kg): 11.6 h
